Legend:
OT2 T cells = test: OT2 T cell pre-treatment with 4EGI-1 before adoptive transfer; type: in vivo, mouse; details: 20 μM 4EGI-1 1 hour before transfer
Protocol: For functional TFH studies: OT2 T cells were isolated and activated, as described, and treated with vehicle or 20 μM 4EGI-1 for 1 hour at 37° C. in vitro prior to transfer of 2×10^6 OT2 T cells i.p. per CD45.1 recipient. Recipient animals were immunized with 100 μg OVA alum 4 days prior. Three days following transfer and 7 days following initial immunization, OT2 T cells that had formed TFH cells were determined.
For long-term studies: OT2 T cells were isolated and activated, as described, and treated with vehicle or 20 μM 4EGI-1 for 1 h at 37° C. in vitro prior to transfer of 12×10^6 OT2 T cells i.p. per CD45.1 recipient. OT2 T cells were enumerated 34 days post transfer and intracellular levels of eIF4E were determined.

EAE mice = test: Active EAE (MOG33-55/CFA), 4EGI-1 from initiation of EAE; type: in vivo, mouse
Protocol: Ten-week old female mice purchased from Jackson Laboratory were subcutaneously injected at two sites with 100 μL […] emulsified in CFA (Hooke Labs) per flank. On the same day, 6 hours later, and on day 2, mice were injected with 100 ng of pertussis toxin in 200 μL i.p. Mice were monitored daily and scored on a scale of 0-5 where 0, no disease; 1, tail paralysis; 2; hind limb paresis; 3, complete hind limb paralysis; 4, front limb weakness and hind limb paralysis, and 5, moribund state. When stated, mice were either administered 25 mg/kg 4EGI-1 or vehicle i.p. from d 0 to 21 following EAE induction or 75 mg/kg 4EGI-1 or vehicle i.p. from day 12 to 21 following EAE induction and randomization. LFB-H images imported into FIJI underwent color deconvolution to isolate myelin staining. A binary image was generated and % myelination of the spinal cord was calculated. Spinal cords from mice not subjected to EAE were set to 100% and all other samples from the same group were normalized. H&E images imported into FIJI underwent color deconvolution to isolate hematoxylin staining. A binary image was generated and % infiltration of the spinal cord of was calculated. Five-micron sections of paraffin embedded tissue were stained with Akoya Biosciences® Opal™ multiplex automation kit reagents unless stated otherwise. Automated staining was performed on Leica BondRX® autostainer. The protocol was performed according to manufacturers' instructions with primary antibodies to CD19 (Cell Signaling Technology, cat #90176) and CD4 (Cell Signaling Technology, cat #25229). Briefly, all slides underwent sequential epitope retrieval with Leica Biosystems epitope retrieval 2 solution (EDTA based, pH9, Cat. AR9640), primary and secondary antibody incubation and tyramide signal amplification (TSA) with Opal® fluorophores Op690 and Op520. Primary and secondary antibodies were removed during epitope retrieval steps while fluorophores remain covalently attached to the epitope. Semi-automated image acquisition was performed on a Vectra® Polaris multispectral imaging system. After whole slide scanning at 10× the tissue was manually outlined to select fields for multispectral imaging at 20×. Phenochart® software from Akoya Biosciences was used for spectral unmixing of the whole slide scans. Scans were imported into QuPath and representative images were exported into FIJI.

[1] = tested on: eIF4E cap-dependent protein synthesis in the CD4+ T cell compartment; test: SUnSET protein synthesis assay in CD4+ T cells of mice dosed with 4EGI-1; type: in vivo, mouse; details: 25 mg/kg daily
Protocol: Determination of eIF4E activity in vivo should compare untreated to treated animals. Specimens may include single-cell suspensions of splenocytes isolated using Percoll gradient purification followed by plating in X-VIVO media (Lonza) containing 5% human AB serum (Sigma) and Glutamax at 37° C. for one hour and subjected to SuNSET assay for 10 minutes to determine active protein synthesis rates according to manufacturer instructions (AG Scientific) and shown in FIGS. 10A and 14B.
(§1) Mice were immunized with 100 μg OVA/Alum and 7 days following, spleens were harvested and single-cell suspensions were generated. Splenocytes were incubated in mouse T cell media (detailed in Silencing of eIF4E in OT2 T cells by lentivirus transduction) with 0-25 μM 4EGI-1 for 4 hours at 37° C. Cells were stained with a live/dead viability marker and then for extracellular expression of CD4, CXCR5, PD-1, or ICOS or intranuclear expression of BCL6. For the SuNSET assay, cells from above were incubated 37° C. with 10 μg/mL puromycin for 10 minutes. Control samples were incubated with puromycin and 100 μg/mL cycloheximide. Cells were incubated with a live/dead viability marker and extracellular stain prior to fixation and permeabilization (BD Biosciences Fixation/Permeabilization Solution) and intracellular staining with anti-puromycin followed by anti-mouse IgG2a antibody conjugated to Alexa Fluor 488.

[2] = tested on: CD4+ T cells from mice immunized with OVA/Alum; test: In vitro treatment of mouse splenocytes with 4EGI-1 and SUnSET assay; type: cell-based
Protocol: as §1

[3] = tested on: human lymph node CD4+ CD45RO+ T cells; test: In vitro treatment of human lymph node cells with 4EGI-1; type: cell-based; details: 4EGI-1 overnight, three patients
Protocol: Discarded, deidentified, reactive, but non-malignant human lymph node single cell suspensions were obtained. Presence of TFH cells was confirmed by identification of CD4^+ CD45RO^+ T cells that are PD1^+ CXCR5^+ BCL6^+ and ICOS^+. Lymph node suspensions were incubated overnight at 37° C. in X-VIVO media (Lonza) containing 5% human AB serum (Sigma) and Glutamax with 0-25 μM 4EGI-1. Cells were then stained with a live/dead viability marker and then for extracellular expression of human CD4, CD45RO, CXCR5, PD-1, or ICOS or intranuclear expression of BCL6. Expression of markers was normalized to % of control (0 μM 4EGI-1) to allow for combined statistical analysis of all 3 patients. Antibody clones and dilutions used to identify these populations are detailed in Table 2.

[4] = 4EGI-1 up to 25 μM, 4 hours, mouse CD4+ T cells
[5] = 10-25 μM 4EGI-1, 4 hours, mouse CD4+ lymphocytes in culture

**Q.** Which results are given for `O=C(O)C(Cc1ccccc1[N+](=O)[O-])=NNc1nc(-c2ccc(Cl)c(Cl)c2)cs1` (mixture of isomers) [4EGI-1]?
**A.** OT2 T cells populating the spleen vs non-treated OT2 T cells (OT2 T cells; 34 days post-transfer): equal; OT2 T cells populating the spleen vs non-treated OT2 T cells (OT2 T cells; assayed 7 days): equal; intracellular levels of eIF4E in recovered OT2 T cells (OT2 T cells; day 34 post-transfer): sustained reduction; reduction in number of OT2 TFH cells in the spleen (OT2 T cells; following OVA/Alum immunization): two-thirds; clinical EAE severity (daily clinical score) (EAE mice; 25 mg/kg daily i.p., day 0 to 21): significantly reduced; disease-associated weight loss (EAE mice; 25 mg/kg daily i.p., from EAE induction): significantly reduced; ELFs (ectopic lymphoid follicles) in spinal cord (EAE mice; 25 mg/kg daily, EAE mice): substantially reduced; numbers of CD4+ T and B cells in the spinal cords (EAE mice; 25 mg/kg daily, EAE mice, immunofluorescence): strongly reduced; level of myelination of the spinal cord (normal = 100%) (EAE mice; 25 mg/kg daily, Luxol fast blue): ~98%; CD4+ T cells producing IFN-γ in spinal cord and brain (EAE mice; 25 mg/kg daily, day 21 of EAE): almost abolished; CD4+ T cells producing IL-17A in spinal cord and brain (EAE mice; 25 mg/kg daily, day 21 of EAE): almost abolished; reduction of CD4+ T cells in the brain (EAE mice; 25 mg/kg daily, day 21 of EAE): 3 fold; reduction of CD4+ T cells in the spinal cord (EAE mice; 25 mg/kg daily, day 21 of EAE): 3 fold; reduction of TFH cells in the spleen (EAE mice; 25 mg/kg daily, day 21 of EAE): 3 fold; tolerability ([1]; mice): well tolerated; inhibition of eIF4E cap-dependent protein synthesis in the CD4+ T cell compartment ([1]; uninfected mice, SUnSET (FIG. 1A)): approximately 30%; levels of CXCR5 protein [2, 4]: unchanged; levels of ICOS protein [2, 4]: unchanged; levels of PD-1 protein [2, 4]: unchanged; reduction of BCL6 protein levels [2, 4]: ~3 fold; cell viability [2, 5]: without reducing; reduction of protein synthesis (SUnSET) [2, 5]: 3-4 fold; levels of BCL6 protein ([3]; 0-30 μM / 0-25 μM): rapidly reduced; cell viability [3]: no effect
